Source: BindingDB's records for doi:10.7270/Q25H7DRT (Nmmlsc, 2010)

Target: T1, Citrate synthase, peroxisomal [1-24] (Saccharomyces cerevisiae, UniProt P08679)
T1 construct: 1-24
Test: yeast TOR pathway CIT2-GFP reporter potency – flow cytometry, MLPCN hits, dose response (AID 2744)

T1 sequence (P08679 1-24): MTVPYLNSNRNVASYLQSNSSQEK

Row | Structure (SMILES) | EC50 [µM]
1 | ClC(Cl)(c1nnnn1-c1ccccc1)c1nnnn1-c1ccccc1 [SMR000173835] | > 33
2 | O=C(Nc1ccccc1)ON=C1CCCC1 [cyclopentanone O-(anilinocarbonyl)oxime] | > 33
